Test results as given in US9458463B2, “Method for treatment of diabetes by a small molecule inhibitor for GRK5” (MAX-PLANCK-GESELLSCHAFT ZUR FÖRDERUNG DER WISSENSCHAFTEN …, priority 2010, dated 2016).
Values joined by “and” are separate entries in the source; they are usually repeats but may differ in a detail not shown here. Identical values can stand only once. Blank lines part the entries; values can stand above or below the molecule they belong to.

Key:
beta TC6 cells [1] = test: 2-NBDG uptake in beta TC6 cells; assay type: cell-based, mouse; details: n = 3, FIG. 18
3T3-L1 adipocytes = test: 2-NBDG uptake in matured 3T3-L1 adipocytes; assay type: cell-based; details: relative to DMSO = 1; n = 2
Description: (§1) Inhibition of GRK5 led to an increased uptake of the fluorescent glucose analogue 2-NBDG in matured C2C12 myotubes (FIG. 20) and 3T3-L1 adipocytes (FIG. 21) for all five compounds (summarized in table 7). In line with C2C12 cells, the matured myotubes display an increase 2-NBDG uptake after inhibition of GRK5 by compounds 1-5.

C2C12 cells [2] = test: 2-NBDG glucose uptake in C2C12 cells (flow cytometry); assay type: cell-based, mouse; details: for 2-NBDG Glucose Uptake [%]: group II, at 5 μM, 1 h, 100 μM 2-NBDG
Procedure: (§2) 2-NBDG is a fluorescently-labeled deoxyglucose analog that is commonly used to directly monitor glucose uptake by living cells. For 2-NBDG detection, cells were cultured for 1 h together with 5 μM of a small molecule in glucose free media supplied with 100 μM 2-NBDG at 37° C. before collecting. Furthermore, as internal controls, samples of glucose free media, rFc4espectively glucose free media with test compound, were tested. Subsequently, cells were washed, trypsinized and harvested in ice-cold PBS before centrifuged at 1.6×10^3 rpm at 4° C. Cells were analyzed by flow cytometry (FACS Calibur, BD Bioscience, respectively a BD Accuri® C6 Flow Cytometer).
as §2, with “an inventive compound” for “a small molecule”, “media,” for “media, rFc4espectively”, “compound, respectively glucose free media supplied with 100 μM 2-NBDG” for “compound,”

matured C2C12 myotubes = test: 2-NBDG uptake in matured C2C12 myotubes; assay type: cell-based, mouse; details: relative to DMSO = 1; n = 2
Description: as §1

full length GRK5 = biological target: T1, full length GRK5 (Homo sapiens, UniProt P34947); test: GRK5 kinase activity assay, ADP Glo Kinase Assay technology (Promega); assay type: biochemical
T1 construct: 6/2 fold concentrated full length GRK5 (Millipore, #14-714) in reaction buffer; purchased Millipore 14-714
In short: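 Casein (10 μM) phosphorylation with 100 μM ATP in 20 mM MES pH 6.0, 1 mM DTT, 10 mM MgCl2, 0.01% Tween20, 120 min at room temperature; ADP quantified by ADP-Glo luminescence.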

3T3-L1 pre-adipocytes = test: 2-NBDG uptake in 3T3-L1 pre-adipocytes; assay type: cell-based
[3] = tested on: beta-TC6 insulinoma cells; test: Insulin release by beta-TC6 cells, rat/mouse insulin ELISA, high glucose; assay type: cell-based
Procedure: (§3) Release of insulin was detected using a rat/mouse insulin ELISA.
After incubation, the supernatant of the beta-TC6 insulinoma cells was diluted 1:20. The insulin release was measured with rat/mouse insulin ELISA (Merck Millipore Darmstadt, Cat. # EZRMI-13K) by following the manufacture protocol. The enzyme activity of the horseradish peroxidase of the immobilized biotinylated antibodies was monitored spectrophotometrically by the increased absorbency at 490 nm, and corrected by the absorbency at 610 nm.
as §3
The effect on the insulin release of each kinase depletion was monitored by using a rat/mouse insulin ELISA.
For the validation of the negative modulating kinases SCYL1, GRK5, and ADCK1, the target genes were depleted using four different siRNA-sequences each (FIG. 2A-D). The gene-depletion was measured via mRNA-levels after 72 hours while the insulin release was measured using a rat/mouse insulin ELISA after two hours incubation.

GRK5 = biological target: T2, GRK5 (Homo sapiens, UniProt P34947); test: Millipore KinaseProfiler radiometric filtration binding assay; assay type: biochemical; details: group II; Millipore KinaseProfiler (Table 10)
T2 construct: purchased Millipore (KinaseProfiler service)
Procedure: (§4) As alternative, IC50 values are determined by a radiometric based filtration binding assay, namely Millipore KinaseProfiler™. GRK5 is incubated with 8 mM MOPS pH7.0, 0.2 mM EDTA, 2 mg/mL casein, 10 mM MgAcetate and […] (specific activity approx. 500 cpm/pmol, concentration as required). The reaction is initiated by the addition of the MgATP mix. After incubation for 40 minutes at room temperature, the reaction is stopped by the addition of 3% phosphoric acid solution. 10 μL of the reaction is then spotted onto a P30 filtermat and washed three times for 5 minutes in 75 mM phosphoric acid and once in methanol prior to drying and scintillation counting.
as §4, with “IC50” for “As alternative, IC50”, “pH 7.0,” for “pH7.0,”

beta TC6 cells [4] = test: Cell viability assay (CellTiter-Glo / automated cell number) in beta TC6; assay type: cell-based; details: Mus musculus, read-out: Inhibition of cell viability IC50
In short: (§5)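 ATP read by CellTiter-Glo luminescence after 10 min lysis at RT. Imaging variant: 10000 cells/well treated 72 h, then fixed and stained with Hoechst 33342 (20 μg/ml, 30 min, 37 °C). Nuclei counted automatically over six fields at 10×, compared with untreated controls, giving IC50.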

3T3-L1 cells = test: Cell viability assay (CellTiter-Glo / automated cell number) in 3T3-L1; assay type: cell-based; details: Mus musculus, read-out: Inhibition of cell viability IC50
In short: as §5

HepG2 cells = test: Cell viability assay (CellTiter-Glo / automated cell number) in HepG2; assay type: cell-based; details: Homo sapiens, read-out: Inhibition of cell viability IC50
In short: as §5

C2C12 cells [5] = test: Cell viability assay (CellTiter-Glo / automated cell number) in C2C12; assay type: cell-based; details: Mus musculus, read-out: Inhibition of cell viability IC50
In short: as §5

beta-TC6 cells = test: Insulin HTRF assay on beta-TC6 supernatant (relative activity Ar); assay type: cell-based, mouse; details: group I
Description: For further screening of compounds derived from compounds described above for their ability to regulate insulin release an insulin HTRF® (Homogeneous Time-Resolved Fluorescence; Cisbio International, France) was used. This assay is based on two antibodies against insulin binding to different epitopes of insulin. One of these antibodies is coupled to Europium (Ab-Eu-Cryptate) and the other one to the fluorophore XL665 (Ab-XL665). If the insulin is secreted into the supernatant of cell culture, both antibodies can bind to insulin and come therefore into close proximity, which allows upon excitation that energy transfer between (FRET) the long-life fluorescent donor Europium (cryptate) and the acceptors XL665. FRET increases proportionally with insulin concentration.
On day 1, 15 k beta-TC6 cells per well were seeded for 24 or 48 h in 50 μL complete medium. On day 2 or respective on day 3, the medium is removed and cells are washed with 60 μL 1×PBS and 20 μL induction buffer is added using BioTek washer. Subsequently, 10 μL Sunitininb (5-μM f.c.) or the test compound in induction buffer; 0.5% f.c. DMSO (CyBi-well) is transferred to the cells. The cells are then incubated at 37° C. for 2, 3, 4 h. […]
First 10 μL supernatant is transferred from the cell plates in HTRF plates (CyBi-well). […] Finally HTRF is measured on ViewLux ultra high throughput microplate imager (PerkinElmer). […]

T1 sequence (P34947 whole entry): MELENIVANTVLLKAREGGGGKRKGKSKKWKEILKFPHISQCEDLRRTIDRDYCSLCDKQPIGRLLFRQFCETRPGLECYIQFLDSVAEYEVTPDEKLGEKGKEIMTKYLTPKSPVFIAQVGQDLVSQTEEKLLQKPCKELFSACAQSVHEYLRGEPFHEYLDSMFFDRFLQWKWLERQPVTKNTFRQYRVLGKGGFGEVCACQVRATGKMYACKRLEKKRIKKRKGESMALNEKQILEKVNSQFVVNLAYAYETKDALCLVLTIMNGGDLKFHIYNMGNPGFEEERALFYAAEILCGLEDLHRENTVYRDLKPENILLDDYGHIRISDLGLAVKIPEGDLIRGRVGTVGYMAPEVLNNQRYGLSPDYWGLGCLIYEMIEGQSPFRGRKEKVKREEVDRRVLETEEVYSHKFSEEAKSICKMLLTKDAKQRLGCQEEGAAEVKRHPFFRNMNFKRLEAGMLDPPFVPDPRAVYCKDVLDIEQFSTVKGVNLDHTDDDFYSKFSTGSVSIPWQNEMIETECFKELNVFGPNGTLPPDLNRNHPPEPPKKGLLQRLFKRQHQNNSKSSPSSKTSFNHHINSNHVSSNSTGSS
T2 sequence (P34947 whole entry): as above

Inhibition of Grk5 [%] (full length GRK5; primary screen, final assay concentration 100 μM): 60.0%
SMILES: Nc1cccc(-c2cc3cnc(Nc4cccnc4)cc3[nH]2)c1 [C2]
2-NBDG glucose uptake, Ratio (average, DMSO = 1) (beta TC6 cells [1]): 1.529
2-NBDG uptake Ratio, 3T3-L1 adipocytes matured (3T3-L1 adipocytes): 2.234
2-NBDG glucose uptake, Ratio (average, DMSO = 1) (C2C12 cells [2]; C2C12 cells, n = 3, FIG. 17): 2.127
2-NBDG uptake Ratio, C2C12 myotubes matured (matured C2C12 myotubes): 2.383
2-NBDG glucose uptake, Ratio (average, DMSO = 1) (3T3-L1 pre-adipocytes; 3T3-L1 pre-adipocytes, n = 3, FIG. 19): 1.111
Insulin release (average, relative to DMSO = 1) ([3]; beta-TC6, 5 μM): 2.58±0.94 and 2.58
Insulin release (average, relative to DMSO = 1) ([3]; beta-TC6, 10 μM): 2.01±0.19 and 2.01

IC50 (GRK5): 0.1 to 1 µM
IC50 (full length GRK5; group II, ADP Glo Kinase Assay (Table 9-B)): 0.1 to 1 µM
IC50 (HepG2 cells): 0.89 µM
SMILES: C[C@@H](NC(=O)c1ccc2c(c1)/C(=C/Nc1ccc(CN3CCCCC3)cc1)C(=O)N2)c1ccc(Cl)cc1 [II.73, (3Z)-N-[(1R)-1-(4-chlorophenyl)ethyl]-2-oxo-3-({[4-(piperidin-1-ylmethyl)phenyl]amino}methylene)indoline-5-carboxamide]
2-NBDG Glucose Uptake [%] (C2C12 cells [2]): 127%
IC50 (beta TC6 cells [4]): 0.73 µM
IC50 (3T3-L1 cells): 2.73 µM
IC50 (C2C12 cells [5]): 2.33 µM

SMILES: C[C@@H](NC(=O)c1ccc2c(c1)/C(=C/c1ccc(C(=O)N3CCN(C)CC3)cc1)C(=O)N2)c1ccccc1 [II.143, (3Z)-3-[4-(4-methyl-piperazine-1-carbonyl)-benzylidene]-2-oxo-2,3-dihydro-1H-indole-5-carboxylic acid (1R)-(1-phenyl-ethyl)-amide]
2-NBDG Glucose Uptake [%] (C2C12 cells [2]): 72%

SMILES: Nc1cccc(-c2cc3cnc(Nc4cccnc4)cc3[nH]2)c1 [compound 2, 2-(3-aminophenyl)-N-(3-pyridyl)-1H-pyrrolo[3,2-c]pyridin-6-amine]
Glucose uptake (2-NBDG) in 3T3-L1 pre-adipocytes (3T3-L1 pre-adipocytes; GRK5 screen compounds): stimulated

SMILES: COc1cc(Nc2nccc3c2cc(-c2ccc(C(=O)N(C)C)cc2)n3C)cc(C(F)(F)F)c1 [compound 220, N,N-dimethyl-4-[1-methyl-4-(3-methoxy-5-(trifuloromethyl)phenylamino)pyrrolo[3,2-c]pyridin-2-yl]benzamide]
Ar (relative activity) (beta-TC6 cells): + (0% < Ar < 30%)

SMILES: CS(=O)(=O)c1ccc(Nc2nccc3[nH]c(-c4ccccc4)cc23)cc1 [compound 324, N-(4-methylsulfonylphenyl)-2-phenyl-1H-pyrrolo[3,2-c]pyridin-4-annine]
Ar (relative activity) (beta-TC6 cells): +++ (50% ≦ Ar < 100%)
